Like-named read-outs stand apart in the source and are kept apart here.
Experiments:
[1] = tested on: FXR; design: method as in Sun et al., 2018; conditions: ref Sun et al., 2018; read-out: IC50, FXR antagonist; cited from earlier work
[2] = biological target: T1, human FXR (Homo sapiens, UniProt Q96RI1); test: FXR luciferase reporter gene assay (FXRE-luc) in HepG2 cells, antagonistic mode; type: cell-based; conditions: for remaining activity at 10 µM: tested compound 10 µM
T1 sequence (Q96RI1 1-486): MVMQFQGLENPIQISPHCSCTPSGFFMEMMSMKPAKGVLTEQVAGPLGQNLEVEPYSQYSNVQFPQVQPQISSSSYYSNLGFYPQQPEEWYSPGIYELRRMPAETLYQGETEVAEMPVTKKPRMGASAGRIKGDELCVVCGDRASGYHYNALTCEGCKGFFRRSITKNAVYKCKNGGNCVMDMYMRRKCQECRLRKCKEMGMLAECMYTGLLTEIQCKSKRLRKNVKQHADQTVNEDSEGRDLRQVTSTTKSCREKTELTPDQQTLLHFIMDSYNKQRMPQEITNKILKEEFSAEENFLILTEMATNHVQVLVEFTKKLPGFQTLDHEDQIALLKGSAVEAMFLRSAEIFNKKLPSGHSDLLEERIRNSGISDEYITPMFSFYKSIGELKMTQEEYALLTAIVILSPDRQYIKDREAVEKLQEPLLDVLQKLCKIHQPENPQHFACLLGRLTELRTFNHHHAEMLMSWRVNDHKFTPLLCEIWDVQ
T1 sequence (P19793 1-462 partner): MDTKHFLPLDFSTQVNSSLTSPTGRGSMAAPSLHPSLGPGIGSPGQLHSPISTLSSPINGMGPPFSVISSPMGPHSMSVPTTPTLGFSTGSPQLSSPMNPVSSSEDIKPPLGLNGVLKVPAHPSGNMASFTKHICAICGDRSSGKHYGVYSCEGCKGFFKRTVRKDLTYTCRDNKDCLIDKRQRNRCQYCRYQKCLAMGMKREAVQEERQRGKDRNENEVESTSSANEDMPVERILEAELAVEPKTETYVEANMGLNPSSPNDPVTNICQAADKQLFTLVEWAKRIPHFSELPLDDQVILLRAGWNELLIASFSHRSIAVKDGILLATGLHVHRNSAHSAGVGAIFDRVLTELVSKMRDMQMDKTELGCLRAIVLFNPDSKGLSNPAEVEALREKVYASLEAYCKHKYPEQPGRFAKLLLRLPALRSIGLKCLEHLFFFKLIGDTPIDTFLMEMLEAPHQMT

[3] = tested on: FXR; design: method as in Li et al., 2013; Sayin et al., 2013; conditions: co-activator assay, ref Li et al., 2013, Sayin et al., read-out: IC50, FXR antagonist; cited from earlier work
[4] = tested on: HepaRG; test: MTS viability assay; type: cell-based, human; conditions: Homo sapiens, 24 h, MTS, read-out: IC50 (µM), cell viability
Procedure: (§1) The potential cytotoxicity of 7-alkylated chenodeoxycholic acid derivatives were assessed in different human (HepG2, HepaRG and Huh7) and murine (AML12) hepatocyte-derived cell lines. For this purpose, hepatic cells were treated at increasing concentration for 24h and analyzed by MTS viability assay.
(§2) Table S2. Cell viability was determined using the Cell Titer 96 Aqueous One Solution Cell Proliferation Assay (MTS assay) after treatment with test compounds for 24 h in four different hepatic cell lines. Vehicle (0.1% DMSO) and background (10% SDS; v/v, toxic control) controls of cell viability were set to be 100% and 0%, respectively.

[5] = MTS viability assay; type: cell-based, human; conditions: human, vehicle = 100%
Procedure: as §1, §2

[6] = tested on: HepG2; test: MTS viability assay; type: cell-based, human; conditions: Homo sapiens; HepG2, 24 h, MTS; read-out: IC50 (µM), cell viability
Procedure: as §1, §2

[7] = tested on: Huh7; test: MTS viability assay; type: cell-based, human; conditions: Homo sapiens, Huh-7; Huh7, 24 h, MTS; read-out: IC50 (µM), cell viability
Procedure: as §1, §2

[8] = tested on: AML12; test: MTS viability assay; type: cell-based, murine; conditions: Mus musculus; AML12, 24 h, MTS; read-out: IC50 (µM), cell viability
Procedure: as §1, §2

[9] = MTS viability assay; type: cell-based, murine; conditions: mouse, AML12 cells; AML12, 24 h, vehicle = 100%
Procedure: as §1, §2

[10] = biological target: T2, FXR LBD (Homo sapiens, UniProt Q96RI1); test: LanthaScreen TR-FRET FXR Coactivator Assay, antagonistic mode (SRC-2 peptide recruitment); type: biochemical
T2 construct: purchased ThermoFisher Scientific PV4833
T2 sequence (Q96RI1 262-486 limits assumed): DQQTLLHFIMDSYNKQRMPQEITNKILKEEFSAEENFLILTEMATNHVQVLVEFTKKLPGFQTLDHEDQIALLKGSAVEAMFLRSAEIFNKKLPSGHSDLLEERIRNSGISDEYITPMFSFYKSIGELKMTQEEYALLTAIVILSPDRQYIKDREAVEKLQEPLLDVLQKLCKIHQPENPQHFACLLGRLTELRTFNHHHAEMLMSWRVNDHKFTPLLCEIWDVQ
Procedure: The LanthaScreen® TR-FRET FXR Coactivator Assay (goat, PV4833, ThermoFisher Scientific) was performed to assess the affinity of tested compounds to FXR ligand-binding domain (LBD) in agonistic and antagonistic models. In the antagonistic assays, the FXR LBD was co-incubated with OCA or GW4064, together with tested ligands in increasing concentrations. The assay was performed according to the manufacturer’s protocols. […] Data have been obtained from three independent experiments performed in 4 replicates.

[11] = biological target: T3, GPBAR1 (Homo sapiens, UniProt Q8TDU6); test: GPBAR1 CRE-luc luciferase reporter assay in HepG2 cells; type: cell-based; conditions: 10 µM, 5 h, LCA 10 µM set as 100%
T3 construct: host or cells: HepG2
T3 sequence (Q8TDU6 1-330): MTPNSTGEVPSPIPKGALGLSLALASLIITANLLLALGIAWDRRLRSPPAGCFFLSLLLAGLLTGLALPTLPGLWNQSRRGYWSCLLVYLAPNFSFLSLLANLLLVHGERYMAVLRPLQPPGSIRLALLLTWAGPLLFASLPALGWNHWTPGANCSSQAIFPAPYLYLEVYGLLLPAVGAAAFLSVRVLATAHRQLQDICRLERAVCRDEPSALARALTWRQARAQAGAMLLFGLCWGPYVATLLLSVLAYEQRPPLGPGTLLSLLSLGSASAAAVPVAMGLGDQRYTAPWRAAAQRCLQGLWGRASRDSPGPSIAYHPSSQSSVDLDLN
Procedure: (C) Effects of LCA and 7-ELCA (both at 10 µM) on intracellular generation of cAMP in differentiated NCI-H716 cells after 30 min treatment. The increase in cAMP level (ΔcAMP) is presented as the difference between cAMP concertation in the treated sample after subtraction of the cAMP in the nontreated control sample. (D) Concentration-response curves for activation of GPBAR1 by LCA and 7-ELCA. EC50 values were calculated using nonlinear fitting of concentration-response curves. […] GLP-1 was normalized to protein concentration and GPBAR1 mRNA expression to GAPDH mRNA. Data are presented as a fold to control nontreated (NT) samples. Forskolin (FSK, 10 µM) was used as a GPBAR1-independent activator of cAMP production.

[12] = biological target: T1, human FXR; test: FXR luciferase reporter gene assay (FXRE-luc) in HepG2 cells, agonistic mode; type: cell-based; conditions: 10 µM, 24 h, compound alone
Procedure: FIGURE 3 Interaction of 7-alkylated derivatives of CDCA and 7-ELCA with human FXR in luciferase reporter gene assays. HepG2 cells were transiently co-transfected with the luciferase FXRE-luc construct and with expression pSG5-hFXR, pSG5-hRXRα, and pRL-TK vectors. Cells were treated with indicated concentrations for 24 h alone (A), an agonistic mode) or with 1 µM OCA as an FXR agonist (B–F), an antagonistic mode). […] IC50 values were calculated using concentration-response curves nonlinear fitting in GraphPad software.

[13] = HepG2, GW4064 1 µM, read-out: relative response (%) to the model FXR ligand activation (set to be 100%), GW4064 1 µM
[14] = HepG2, tested compound 40 µM, CDCA 20 µM, * = significant effect on cellular viability, read-out: relative response (%) to the model FXR ligand activation (set to be 100%), CDCA 20 µM
[15] = HepG2, tested compound 40 µM, GW4064 1 µM, * = significant effect on cellular viability, read-out: relative response (%) to the model FXR ligand activation (set to be 100%), GW4064 1 µM

SMILES | IC50 [1] | IC50 [3] | remaining activity at 10 µM [2, 13] | remaining activity at 40 µM [2, 14] | remaining activity at 40 µM [2, 15] | IC50 [4] | viability at 24 h, 10 µM ([5]; HepG2 cells, HepG2, 24 h) | viability at 24 h, 10 µM ([5]; HepaRG cells) | viability at 24 h, 10 µM ([5]; Huh7 cells, Huh7, 24 h) | IC50 [6] | IC50 [7] | IC50 [8] | viability at 24 h, 10 µM [9] | further results
C[C@H](CCC(=O)NCC(=O)O)[C@H]1CC[C@H]2[C@@H]3[C@@H](O)C[C@@H]4C[C@H](O)CC[C@]4(C)[C@H]3CC[C@]12C [GUDCA] | 77.2 µM |  |  |  |  |  |  |  |  |  |  |  |  | 
C[C@H](CCC(=O)NCCS(=O)(=O)O)[C@H]1CC[C@H]2[C@@H]3[C@@H](O)[C@@H](O)[C@@H]4C[C@H](O)CC[C@]4(C)[C@H]3CC[C@]12C [Tβ-MCA, tauro-β-muricholic acid, reference compound] |  | 40 µM |  |  |  |  |  |  |  |  |  |  |  | inhibition of FXR activation ([2]; at 100 µM, with 1 µM OCA): 15%; relative response (%) to the model FXR ligand activation (set to be 100%), CDCA 20 µM ([2]; tested compound 40 µM, CDCA 20 µM, * = significant effect on cellular viability): 95.0±5.7%; relative response (%) to the model FXR ligand activation (set to be 100%), GW4064 1 µM ([2]; tested compound 40 µM, GW4064 1 µM, * = significant effect on cellular viability): 84.8±6.2%
CC(CCC(=O)O)C1CCC2C3C(CCC12C)C1(C)CCC(O)CC1CC3(O)C(C)C (stereo not drawn) [2h, 3α,7α-Dihydroxy-7β-isopropyl-5β-cholan-24-oic acid] |  |  | 91.4 ± 5.3% | 47.6 ± 0.3% | 63 ± 8.2% | 181 µM | 93.4 ± 7.4% | 101 ± 6.9% | 97.6 ± 7.3% | 103.3 ± 1 µM | > 100 µM | 143 µM | 94 ± 3.7% | IC50 ([2]; HepG2, co-treatment with 1 µM OCA, 24 h, read-out: IC50, inhibition of OCA-induced FXR activation): 17.5 ± 1.7 µM; inhibition at 100 µM ([2]; HepG2, at 100 µM, with 1 µM OCA, read-out: inhibition of FXR activation): ~90%; IC50 ([10]; GW4064 1 µM, read-out: IC50, inhibition of GW4064-promoted interaction of SRC-2 and FXR): 35.2 ± 5.4 µM; IC50 ([10]; OCA 1 µM, read-out: IC50, inhibition of OCA-induced recruitment of SRC-2 to FXR LBD): 25 ± 3.7 µM
C[C@H](CCC(=O)NCCS(=O)(=O)O)[C@H]1CC[C@H]2[C@@H]3[C@H](O)[C@@H](O)[C@@H]4C[C@H](O)CC[C@]4(C)[C@H]3CC[C@]12C [tauro-α-MCA] |  | 28 µM |  |  |  |  |  |  |  |  |  |  |  | 
C[C@H](CCC(=O)O)[C@H]1CCC2C3C(CC[C@@]21C)[C@@]1(C)CC[C@@H](O)C[C@H]1C[C@]3(O)C1CC1 (stereo partly drawn) [2i, 3α,7α-Dihydroxy-7β-cyclopropyl-5β-cholan-24-oic acid] |  |  | 88.4 ± 4.2% | 60 ± 5.8% | 60.5 ± 5.2% | > 200 µM | 90.9 ± 0.9% | 133 ± 12.2% | 97.9 ± 10.4% | 178.4 ± 1 µM | > 200 µM | > 200 µM | 108 ± 3.2% | CRE-luc activation compared to LCA (in words) [11]: comparable activities to LCA; melting point: 78 to 82 °C; FXR activation, agonistic mode (in words) [12]: significant inhibition of the FXR basal activation
C[C@H](CCC(=O)NCCS(=O)(=O)O)[C@H]1CC[C@H]2[C@@H]3[C@@H](O)C[C@@H]4C[C@H](O)CC[C@]4(C)[C@H]3CC[C@]12C [TUDCA, tauro-ursodeoxycholic acid] | 75.1 µM |  |  |  |  |  |  |  |  |  |  |  |  | 

— PMC8414367, “(E)-7-Ethylidene-lithocholic Acid (7-ELCA) Is a Potent Dual Farnesoid X Receptor (FXR) Antagonist and GPBAR1 Agonist Inhibiting FXR-Induced Gene Expression in Hepatocytes and Stimulating Glucagon-like Peptide-1 Secretion From Enteroendocrine Cells” (Frontiers in Pharmacology, 2021)
